Results from ChEMBL document CHEMBL1201862, “PubChem BioAssay data set” (2004).
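Protocol summary: plate cells (96-well), add compound at 5 concentrations, incubate 48 h, interpolate endpoints linearly. Abbreviation: GI50, concentration required for 50% inhibition of growth.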 Activity calls are given as the source filed them. Cut-off read from the data, not from the text of the source: active = GI50 up to about 1.1 µM and inactive = higher.

What was measured:
Test in all cases: NCI-60 cell line screen, 48 h
NCI-H522 = test system: NCI-H522
M14 = test system: M14
OVCAR-4 = test system: OVCAR-4
K562 = test system: K562
SF-268 = test system: SF-268
SF-539 = test system: SF-539
RXF 393 = test system: RXF 393
NCI/ADR-RES = test system: NCI/ADR-RES
MOLT-4 = test system: MOLT-4
ACHN = test system: ACHN
NCI-H23 = test system: NCI-H23
LOX IMVI = test system: LOX IMVI
SK-MEL-28 = test system: SK-MEL-28
TK-10 = test system: TK-10
T47D = test system: T47D
CCRF-CEM = test system: CCRF-CEM
UACC-257 = test system: UACC-257
UACC-62 = test system: UACC-62
EKVX = test system: EKVX
HL-60 = test system: HL-60
HCT-15 = test system: HCT-15
A549 = test system: A549
SR = test system: SR
HCT-116 = test system: HCT-116
SNB-75 = test system: SNB-75
MCF7 = test system: MCF7
SK-MEL-2 = test system: SK-MEL-2
HCC 2998 = test system: HCC 2998
KM12 = test system: KM12
A498 = test system: A498
SNB-19 = test system: SNB-19
OVCAR-8 = test system: OVCAR-8
SK-OV-3 = test system: SK-OV-3
CAKI-1 = test system: CAKI-1
UO-31 = test system: UO-31
OVCAR-3 = test system: OVCAR-3
SK-MEL-5 = test system: SK-MEL-5
OVCAR-5 = test system: OVCAR-5
HOP-62 = test system: HOP-62
MDA-N = test system: MDA-N
SW-620 = test system: SW-620
SF-295 = test system: SF-295
MDA-MB-231 = test system: MDA-MB-231
Malme-3M = test system: Malme-3M
DU-145 = test system: DU-145
COLO 205 = test system: COLO 205
786-0 = test system: 786-0
PC-3 = test system: PC-3
RPMI-8226 = test system: RPMI-8226
MDA-MB-435 = test system: MDA-MB-435
NCI-H460 = test system: NCI-H460
HT-29 = test system: HT-29
IGROV-1 = test system: IGROV-1
Hs-578T = test system: Hs-578T
SN12C = test system: SN12C
NCI-H226 = test system: NCI-H226
BT-549 = test system: BT-549
U-251 = test system: U-251
HOP-92 = test system: HOP-92

C/C=C/C(C/C=C(\C)CO[Si](C)(C)C(C)(C)C)O[Si](C)(C)C(C)(C)C (configuration not stated)
GI50 (NCI-H522): > 100 µM (inactive)
GI50 (M14): > 100 µM (inactive)
GI50 (OVCAR-4): > 100 µM (inactive)
GI50 (K562): > 100 µM (inactive)
GI50 (SF-268): > 100 µM (inactive)
GI50 (SF-539): > 100 µM (inactive)
GI50 (RXF 393): > 100 µM (inactive)
GI50 (NCI/ADR-RES): > 100 µM (inactive)
GI50 (MOLT-4): > 100 µM (inactive)
GI50 (ACHN): > 100 µM (inactive)
GI50 (NCI-H23): > 100 µM (inactive)
GI50 (LOX IMVI): > 100 µM (inactive)
GI50 (SK-MEL-28): > 100 µM (inactive)
GI50 (TK-10): > 100 µM (inactive)
GI50 (T47D): > 100 µM (inactive)
GI50 (CCRF-CEM): > 100 µM (inactive)
GI50 (UACC-257): > 100 µM (inactive)
GI50 (UACC-62): > 100 µM (inactive)
GI50 (EKVX): > 100 µM (inactive)
GI50 (HL-60): > 100 µM (inactive)
GI50 (HCT-15): > 100 µM
GI50 (A549): > 100 µM (inactive)
GI50 (SR): > 100 µM (inactive)
GI50 (HCT-116): > 100 µM (inactive)
GI50 (SNB-75): > 100 µM (inactive)
GI50 (MCF7): > 100 µM (inactive)
GI50 (SK-MEL-2): > 100 µM (inactive)
GI50 (HCC 2998): > 100 µM (inactive)
GI50 (KM12): > 100 µM (inactive)
GI50 (A498): > 100 µM (inactive)
GI50 (SNB-19): > 100 µM (inactive)
GI50 (OVCAR-8): > 100 µM (inactive)
GI50 (SK-OV-3): > 100 µM (inactive)
GI50 (CAKI-1): > 100 µM (inactive)
GI50 (UO-31): > 100 µM (inactive)
GI50 (OVCAR-3): > 100 µM (inactive)
GI50 (SK-MEL-5): > 100 µM (inactive)
GI50 (OVCAR-5): > 100 µM (inactive)
GI50 (HOP-62): > 100 µM (inactive)
GI50 (MDA-N): > 100 µM (inactive)
GI50 (SW-620): > 100 µM (inactive)
GI50 (SF-295): > 100 µM (inactive)
GI50 (MDA-MB-231): > 100 µM (inactive)
GI50 (Malme-3M): > 100 µM (inactive)
GI50 (DU-145): > 100 µM (inactive)
GI50 (COLO 205): > 100 µM (inactive)
GI50 (786-0): > 100 µM (inactive)
GI50 (PC-3): > 100 µM (inactive)
GI50 (RPMI-8226): > 100 µM (inactive)
GI50 (MDA-MB-435): > 100 µM (inactive)
GI50 (NCI-H460): > 100 µM (inactive)
GI50 (HT-29): > 100 µM (inactive)
GI50 (IGROV-1): > 100 µM (inactive)
GI50 (Hs-578T): > 100 µM (inactive)
GI50 (SN12C): > 100 µM (inactive)
GI50 (NCI-H226): > 100 µM (inactive)

O=C(/C=N/O)c1c(-c2ccccc2)[nH]c(-c2ccccc2)c1-c1ccccc1
GI50 (BT-549): < 0.01 µM (active)
GI50 (NCI-H522): 13.8 µM (inactive)
GI50 (M14): 31 µM (inactive)
GI50 (OVCAR-4): 13.6 µM (inactive)
GI50 (K562): 14.1 µM (inactive)
GI50 (SF-268): 19.3 µM (inactive)
GI50 (SF-539): 13.2 µM (inactive)
GI50 (RXF 393): 12.5 µM (inactive)
GI50 (NCI/ADR-RES): 6.78 µM (inactive)
GI50 (MOLT-4): 2.37 µM (inactive)
GI50 (ACHN): 16 µM (inactive)
GI50 (NCI-H23): 7.46 µM (inactive)
GI50 (LOX IMVI): 10.8 µM (inactive)
GI50 (SK-MEL-28): 17.8 µM (inactive)
GI50 (TK-10): 21.3 µM (inactive)
GI50 (T47D): 17.1 µM (inactive)
GI50 (CCRF-CEM): 16.6 µM (inactive)
GI50 (UACC-257): 16.2 µM (inactive)
GI50 (UACC-62): 15.2 µM (inactive)
GI50 (EKVX): 3.71 µM (inactive)
GI50 (HL-60): 5.98 µM (inactive)
GI50 (HCT-15): 17.9 µM
GI50 (A549): 14.1 µM (inactive)
GI50 (U-251): 14.5 µM (inactive)
GI50 (SR): 0.0481 µM (active)
GI50 (HCT-116): 26.2 µM (inactive)
GI50 (SNB-75): 18.3 µM (inactive)
GI50 (MCF7): 15.6 µM (inactive)
GI50 (SK-MEL-2): 11.1 µM (inactive)
GI50 (HCC 2998): 34 µM (inactive)
GI50 (KM12): 13.6 µM (inactive)
GI50 (A498): 29.2 µM (inactive)
GI50 (SNB-19): 15.3 µM (inactive)
GI50 (SK-OV-3): 16.1 µM (inactive)
GI50 (CAKI-1): 22.1 µM (inactive)
GI50 (UO-31): 14.3 µM (inactive)
GI50 (OVCAR-3): 13.1 µM (inactive)
GI50 (SK-MEL-5): 16.2 µM (inactive)
GI50 (OVCAR-5): 0.228 µM (active)
GI50 (HOP-62): 44.4 µM (inactive)
GI50 (SW-620): 19.8 µM (inactive)
GI50 (SF-295): 14.3 µM (inactive)
GI50 (MDA-MB-231): 13.3 µM (inactive)
GI50 (Malme-3M): 18.3 µM (inactive)
GI50 (DU-145): 0.927 µM (active)
GI50 (COLO 205): 17.2 µM (inactive)
GI50 (786-0): 54.1 µM (inactive)
GI50 (RPMI-8226): 5.35 µM (inactive)
GI50 (MDA-MB-435): 14.4 µM (inactive)
GI50 (HOP-92): 14 µM (inactive)
GI50 (NCI-H460): 16.7 µM (inactive)
GI50 (HT-29): 21.9 µM (inactive)
GI50 (IGROV-1): 13.8 µM (inactive)
GI50 (Hs-578T): 20.9 µM (inactive)
GI50 (SN12C): 15.8 µM (inactive)
GI50 (NCI-H226): 26.2 µM (inactive)

c1ccc(CSC2(SCc3ccccc3)CCCC2)cc1
GI50 (NCI-H522): > 10 µM (inactive)
GI50 (M14): > 10 µM (inactive)
GI50 (OVCAR-4): > 10 µM (inactive)
GI50 (K562): > 10 µM (inactive)
GI50 (SF-268): > 10 µM (inactive)
GI50 (SF-539): > 10 µM (inactive)
GI50 (RXF 393): > 10 µM (inactive)
GI50 (NCI/ADR-RES): > 10 µM (inactive)
GI50 (MOLT-4): > 10 µM (inactive)
GI50 (ACHN): > 10 µM (inactive)
GI50 (NCI-H23): > 10 µM (inactive)
GI50 (LOX IMVI): > 10 µM (inactive)
GI50 (SK-MEL-28): > 10 µM (inactive)
GI50 (TK-10): > 10 µM (inactive)
GI50 (T47D): > 10 µM (inactive)
GI50 (CCRF-CEM): > 10 µM (inactive)
GI50 (UACC-62): > 10 µM (inactive)
GI50 (EKVX): > 10 µM (inactive)
GI50 (HL-60): > 10 µM (inactive)
GI50 (HCT-15): > 10 µM
GI50 (A549): > 10 µM (inactive)
GI50 (U-251): > 10 µM (inactive)
GI50 (SR): > 10 µM (inactive)
GI50 (HCT-116): > 10 µM (inactive)
GI50 (SNB-75): > 10 µM (inactive)
GI50 (MCF7): > 10 µM (inactive)
GI50 (SK-MEL-2): > 10 µM (inactive)
GI50 (HCC 2998): > 10 µM (inactive)
GI50 (KM12): > 10 µM (inactive)
GI50 (A498): > 10 µM (inactive)
GI50 (SNB-19): > 10 µM (inactive)
GI50 (OVCAR-8): > 10 µM (inactive)
GI50 (SK-OV-3): > 10 µM (inactive)
GI50 (CAKI-1): > 10 µM (inactive)
GI50 (UO-31): > 10 µM (inactive)
GI50 (OVCAR-3): > 10 µM (inactive)
GI50 (SK-MEL-5): > 10 µM (inactive)
GI50 (OVCAR-5): > 10 µM (inactive)
GI50 (HOP-62): > 10 µM (inactive)
GI50 (MDA-N): > 10 µM (inactive)
GI50 (SW-620): > 10 µM (inactive)
GI50 (SF-295): > 10 µM (inactive)
GI50 (MDA-MB-231): > 10 µM (inactive)
GI50 (Malme-3M): > 10 µM (inactive)
GI50 (DU-145): > 10 µM (inactive)
GI50 (COLO 205): > 10 µM (inactive)
GI50 (PC-3): > 10 µM (inactive)
GI50 (RPMI-8226): > 10 µM (inactive)
GI50 (MDA-MB-435): > 10 µM (inactive)
GI50 (NCI-H460): > 10 µM (inactive)
GI50 (HT-29): > 10 µM (inactive)
GI50 (IGROV-1): > 10 µM (inactive)
GI50 (Hs-578T): 6.97 µM (inactive)
GI50 (SN12C): > 10 µM (inactive)
GI50 (NCI-H226): > 10 µM (inactive)
